Laboratory results published in patent US8546401B2, “5,6-disubstituted oxindole-derivatives and use thereof for treating vasopressin-dependent diseases” (AbbVie Deutschland GmbH & Co. KG, priority 2007, dated 2013).

Key:
[1] = target: T1, human vasopressin V1b receptor (Homo sapiens, UniProt P47901); test: Vasopressin V1b receptor binding assay; conditions: CHO-K1 membranes, 3H-AVP displacement
T1 construct: expressed in transfected cells; host or cells: CHO-K1 (cell line hV1b_3H2_CHO), membrane preparation
T1 sequence (P47901 1-424): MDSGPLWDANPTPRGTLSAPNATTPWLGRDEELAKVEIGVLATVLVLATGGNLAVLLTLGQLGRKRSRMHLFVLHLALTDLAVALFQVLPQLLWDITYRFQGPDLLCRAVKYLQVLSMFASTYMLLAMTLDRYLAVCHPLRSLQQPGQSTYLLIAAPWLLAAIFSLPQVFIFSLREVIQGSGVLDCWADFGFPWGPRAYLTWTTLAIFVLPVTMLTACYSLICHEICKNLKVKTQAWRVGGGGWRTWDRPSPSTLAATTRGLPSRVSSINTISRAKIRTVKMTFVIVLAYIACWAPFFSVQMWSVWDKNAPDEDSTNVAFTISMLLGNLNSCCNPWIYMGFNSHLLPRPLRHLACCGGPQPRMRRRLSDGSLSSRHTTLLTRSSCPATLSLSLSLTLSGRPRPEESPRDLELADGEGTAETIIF
Summary of the method: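 Membranes (50 μg/ml protein) from CHO-K1 cells stably expressing human V1b were incubated with 1.5 nM ^3H-AVP in 50 mM Tris, 10 mM MgCl2, 0.1% BSA, pH 7.4, for 60 min at room temperature, 2% DMSO final. Bound ligand measured after filtration; Ki derived by nonlinear regression using Kd 0.4 nM.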

[2] = target: T2, human vasopressin V1a receptor (Homo sapiens, UniProt P37288); test: Vasopressin V1a receptor binding assay; conditions: selectivity quotient, human receptors
T2 construct: expressed in transfected cells; host or cells: CHO-K1 (cell line hV1a_5_CHO), membrane preparation
Summary of the method: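 Membranes from CHO-K1 cells stably expressing the receptor (hV1a_5_CHO; 20 μg/ml protein) were incubated 60 min at room temperature with 0.04 nM ^125I-AVP and increasing test compound in 50 mM Tris, 10 mM MgCl2, 0.1% BSA, pH 7.4. Nonspecific binding was defined with 1 μM AVP and read by filtration and scintillation. Ki came from nonlinear regression using Kd 1.33 nM.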

[3] = target: T3, human oxytocin receptors (Homo sapiens, UniProt P30559); test: Oxytocin receptor binding assay; conditions: selectivity quotient
T3 construct: expressed in transfected cells; host or cells: HEK-293, transient expression; lysed and homogenized cells
T3 sequence (P30559 1-389): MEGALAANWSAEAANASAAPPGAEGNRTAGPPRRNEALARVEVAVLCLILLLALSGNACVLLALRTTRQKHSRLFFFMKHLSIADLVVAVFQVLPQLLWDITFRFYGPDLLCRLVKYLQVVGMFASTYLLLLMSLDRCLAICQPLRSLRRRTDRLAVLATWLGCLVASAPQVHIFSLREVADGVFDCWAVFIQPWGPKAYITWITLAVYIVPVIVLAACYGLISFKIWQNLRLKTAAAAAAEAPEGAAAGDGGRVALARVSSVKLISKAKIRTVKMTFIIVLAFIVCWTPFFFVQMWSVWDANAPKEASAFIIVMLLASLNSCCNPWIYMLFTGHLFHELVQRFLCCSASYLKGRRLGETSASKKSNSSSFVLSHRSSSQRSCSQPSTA
Summary of the method: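 Membranes from HEK-293 cells transiently expressing human oxytocin receptor, incubated with 3-4 nM ^3H-oxytocin in 50 mM Tris, 10 mM MgCl2, 0.1% BSA, pH 7.4; nonspecific binding with 10^−6 M oxytocin. Filtration and scintillation counting; Ki by nonlinear regression using Kd 7.6 nM.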

T2 sequence (P37288 whole entry): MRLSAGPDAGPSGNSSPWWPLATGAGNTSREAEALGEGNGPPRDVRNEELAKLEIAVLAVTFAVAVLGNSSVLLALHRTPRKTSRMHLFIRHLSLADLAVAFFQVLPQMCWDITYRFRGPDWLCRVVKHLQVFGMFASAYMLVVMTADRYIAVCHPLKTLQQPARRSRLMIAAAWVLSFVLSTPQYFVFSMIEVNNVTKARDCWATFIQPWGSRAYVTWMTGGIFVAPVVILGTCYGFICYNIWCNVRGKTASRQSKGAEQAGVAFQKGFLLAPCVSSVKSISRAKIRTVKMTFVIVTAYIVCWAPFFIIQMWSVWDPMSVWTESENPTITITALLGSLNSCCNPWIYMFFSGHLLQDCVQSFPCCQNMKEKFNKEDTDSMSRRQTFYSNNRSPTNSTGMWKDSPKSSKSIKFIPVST

| SMILES | Ki [1] | Ki(h − V1a)/Ki(h − V1b)* [2] | Ki(h − OT)/Ki(h − V1b)* [3] |
| --- | --- | --- | --- |
| CCOc1ncccc1C1(OC(=O)N2CCN(C3CCN(C)CC3)CC2)C(=O)N(S(=O)(=O)c2ccccc2OC)c2cc(Cl)c(F)cc21 (stereo not drawn) [Example 50, 6-Chloro-3-(2-ethoxypyridin-3-yl)-5-fluoro-1-(2-methoxyphenylsulfonyl)-2-oxo-2,3-dihydro-1H-indol-3-yl 4-(1-methylpiperidin-4-yl)piperazine-1-carboxylate] | 10 to 100 nM | + (10-<25) | ++ (25-75) |
| CCOc1ncccc1C1(OC(=O)N2CCN(C3CCN(C)CC3)CC2)C(=O)N(S(=O)(=O)c2ccc(OC)cc2)c2cc(F)c(F)cc21 (stereo not drawn) [Example 52, 3-(2-Ethoxypyridin-3-yl)-5,6-difluoro-1-(4-methoxyphenylsulfonyl)-2-oxo-2,3-dihydro-1H-indol-3-yl 4-(1-methylpiperidin-4-yl)piperazine-1-carboxylate] | 1 to 10 nM | ++ (25-75) | + (10-<25) |
| CCOc1ncccc1C1(OC(=O)N2CCN(C3CCN(C)CC3)CC2)C(=O)N(S(=O)(=O)c2ccccc2OC)c2cc(F)c(F)cc21 (stereo not drawn) [Example 53, 3-(2-Ethoxypyridin-3-yl)-5,6-difluoro-1-(2-methoxyphenylsulfonyl)-2-oxo-2,3-dihydro-1H-indol-3-yl 4-(1-methylpiperidin-4-yl)piperazine-1-carboxylate] | 1 to 10 nM | ++ (25-75) | ++ (25-75) |

The next lines start with the values.

| Ki [1] | Ki(h − V1a)/Ki(h − V1b)* [2] | Ki(h − OT)/Ki(h − V1b)* [3] | SMILES |
| --- | --- | --- | --- |
| 1 to 10 nM | ++ (25-75) | + (10-<25) | CCOc1ncccc1C1(OC(=O)N2CCN(C3CCN(C)CC3)CC2)C(=O)N(S(=O)(=O)c2ccc(OC)cc2OC)c2cc(Cl)c(F)cc21 (stereo not drawn) [Example 46, 6-Chloro-1-(2,4-dimethoxyphenylsulfonyl)-3-(2-ethoxypyridin-3-yl)-5-fluoro-2-oxo-2,3-dihydro-1H-indol-3-yl 4-(1-methylpiperidin-4-yl)piperazine-1-carboxylate] |
| 1 to 10 nM | +++ (>75) | ++ (25-75) | CCOc1ncccc1C1(OC(=O)N2CCN(C3CCN(C)CC3)CC2)C(=O)N(S(=O)(=O)c2ccc(OC)cc2OC)c2cc(F)c(F)cc21 (stereo not drawn) [Example 51, 1-(2,4-dimethoxyphenylsulfonyl)-3-(2-ethoxypyridin-3-yl)-5,6-difluoro-2-oxo-2,3-dihydro-1H-indol-3-yl 4-(1-methylpiperidin-4-yl)piperazine-1-carboxylate] |
